pKi: −log10 of the molar value. Like-named read-outs stand apart in the source and are kept apart here.
Experiments:
Assay in all cases: stopped-flow CO2 hydration assay, phenol red
Assay type in all cases: biochemical
hCA I = biological target: T1, hCA I (Homo sapiens, UniProt P00915)
T1 construct: gene CA1; recombinant, obtained in-house; cytosolic
Excerpt: stopped-flow CO2 hydration assay, phenol red on hCA I

hCA II [1] = biological target: T2, hCA II (Homo sapiens, UniProt P00918)
T2 construct: gene CA2; recombinant, obtained in-house; cytosolic
Excerpt: stopped-flow CO2 hydration assay, phenol red on hCA II

hCA IX [2] = biological target: T3, hCA IX (Homo sapiens, UniProt Q16790)
T3 construct: gene CA9; recombinant, obtained in-house; tumor-associated transmembrane isoform
Excerpt: stopped-flow CO2 hydration assay, phenol red on hCA IX

hCA IV [3] = biological target: T4, hCA IV (Homo sapiens, UniProt P22748); conditions: read-out: hCAI
T4 construct: gene CA4; recombinant, obtained in-house
T4 sequence (P22748 19-284): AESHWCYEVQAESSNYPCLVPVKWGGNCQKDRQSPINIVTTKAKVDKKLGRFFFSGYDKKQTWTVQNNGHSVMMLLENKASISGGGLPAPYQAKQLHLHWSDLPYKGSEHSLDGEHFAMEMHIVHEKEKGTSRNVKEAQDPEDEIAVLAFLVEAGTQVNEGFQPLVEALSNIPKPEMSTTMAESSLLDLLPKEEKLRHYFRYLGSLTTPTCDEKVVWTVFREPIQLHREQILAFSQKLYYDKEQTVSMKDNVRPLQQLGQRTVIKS

hCA IV [4] = biological target: T4, hCA IV
Excerpt: stopped-flow CO2 hydration assay, phenol red on hCA IV

hCA II [5] = biological target: T2, hCA II; conditions: read-out: hCAI
hCA IX [6] = biological target: T3, hCA IX; conditions: read-out: hCAI

T1 sequence (P00915 2-261): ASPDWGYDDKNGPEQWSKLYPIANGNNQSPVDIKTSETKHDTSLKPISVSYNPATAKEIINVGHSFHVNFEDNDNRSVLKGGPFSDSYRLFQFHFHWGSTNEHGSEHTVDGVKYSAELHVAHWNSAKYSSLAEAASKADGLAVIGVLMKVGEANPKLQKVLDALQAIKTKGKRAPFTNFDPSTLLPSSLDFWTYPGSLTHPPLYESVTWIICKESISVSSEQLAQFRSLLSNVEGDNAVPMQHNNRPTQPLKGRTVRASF

Row | Compound | pKi (hCA I; read-out: hCAI) | pKi (hCA II [1]; read-out: hCA II) | pKi (hCA IX [2]; read-out: hCA IX) | pKi (hCA IV [3]) | pKi (hCA I) | pKi (hCA IV [4]) | pKi (hCA II [1]) | pKi (hCA IX [2]) | pKi (hCA II [5]) | pKi (hCA IX [6]) | pKi (hCA IV [4]; read-out: hCA IV)
1 | C[C@H](CCC(=O)O)[C@H]1CC[C@H]2[C@@H]3CC[C@@H]4C[C@H](O)CC[C@]4(C)[C@H]3CC[C@]12C [compound 3, Lithocholic acid] | < 4.00 | 4.19 | 4.15 | < 4.00 |  |  |  |  |  |  | 
2 | C[C@]12CCC(=O)C[C@@H]1CC[C@@H]1[C@@H]2CC[C@]2(C)[C@@H](O)CC[C@@H]12 [compound 16, Androstanolone] |  |  |  |  | < 4.00 | < 4.00 | < 4.00 | < 4.00 |  |  | 
3 | C[C@H](CCC(=O)NCC(=O)O)[C@H]1CC[C@H]2[C@@H]3[C@@H](O)C[C@@H]4C[C@H](O)CC[C@]4(C)[C@H]3CC[C@]12C [compound 6, Glycoursodeoxycholic acid] | < 4.00 | 4.11 | 4.05 | < 4.00 |  |  |  |  |  |  | 
4 | CC(=O)[C@H]1CC[C@H]2[C@@H]3CCC4=CC(=O)CC[C@]4(C)[C@H]3CC[C@]12C [compound 17, Progesterone] | < 4.00 |  |  | < 4.00 |  |  |  |  | < 4.00 | < 4.00 | 
5 | C[C@@H]1CC[C@@]2(OC1)O[C@H]1C[C@H]3[C@@H]4CC=C5C[C@@H](O)CC[C@]5(C)[C@H]4CC[C@]3(C)[C@H]1[C@@H]2C [compound 22, Diosgenin] | < 4.00 |  |  | < 4.00 |  |  |  |  | < 4.00 | < 4.00 | 
6 | C[C@]12CC[C@H](O)CC1=CC[C@@H]1[C@@H]2CC[C@]2(C)C(=O)CC[C@@H]12 [compound 15, Trans-dehydroandrosterone] | < 4.00 |  |  | < 4.00 |  |  |  |  | < 4.00 | < 4.00 | 
7 | C[C@H](CCC(=O)O)[C@H]1CC[C@H]2[C@@H]3[C@H](O)C[C@@H]4C[C@H](O)CC[C@]4(C)[C@H]3C[C@H](O)[C@]12C [compound 2, Cholic acid] | < 4.00 | 4.31 | 4.33 | < 4.00 |  |  |  |  |  |  | 
8 | C[C@]12CC[C@H]3[C@@H](CCC4=CC(=O)CC[C@@]43C)[C@@H]1CC[C@@H]2O [compound 13, Testosterone] |  |  |  |  | < 4.00 | < 4.00 | < 4.00 | < 4.00 |  |  | 
9 | CC(C)CCC[C@@H](C)[C@H]1CC[C@H]2[C@@H]3CC=C4C[C@@H](O)CC[C@]4(C)[C@H]3CC[C@]12C [compound 11, Cholesterol] | < 4.00 |  |  | < 4.00 |  |  |  |  | < 4.00 | < 4.00 | 
10 | C[C@H](CCC(=O)O)[C@H]1CC[C@H]2[C@@H]3[C@H](O)[C@H](O)[C@@H]4C[C@H](O)CC[C@]4(C)[C@H]3CC[C@]12C [compound 9, Hyocholic acid] | 4.08 | 4.41 | 4.14 |  |  |  |  |  |  |  | < 4.00
11 | CC(C)CCC[C@@H](C)[C@H]1CC[C@H]2[C@@H]3CC[C@@H]4C[C@@H](O)CC[C@]4(C)[C@H]3CC[C@]12C [compound 12, Coprostan-3-ol] | < 4.00 |  |  | < 4.00 |  |  |  |  | < 4.00 | < 4.00 | 
12 | C[C@H](CCC(=O)O)[C@H]1CC[C@H]2[C@@H]3[C@H](O)C[C@@H]4C[C@H](O)CC[C@]4(C)[C@H]3CC[C@]12C [compound 1, Chenodeoxycholic acid] | < 4.00 | 4.27 | 4.20 | < 4.00 |  |  |  |  |  |  | 
13 | C[C@H](CCC(=O)O)[C@H]1CC[C@H]2[C@@H]3C[C@H](O)[C@@H]4C[C@H](O)CC[C@]4(C)[C@H]3CC[C@]12C [compound 8, Hyodeoxycholic acid] | < 4.00 | 4.23 | 4.17 | < 4.00 |  |  |  |  |  |  | 
14 | C[C@]12CCC(=O)C=C1CC[C@@H]1[C@@H]2[C@@H](O)C[C@@]2(C)[C@H]1CC[C@]2(O)C(=O)CO [compound 21, Hydrocortisone] | < 4.00 |  |  | < 4.00 |  |  |  |  | < 4.00 | < 4.00 | 
15 | C[C@]12CC[C@@H]3c4ccc(O)cc4CC[C@H]3[C@@H]1CCC2=O [compound 20, Estron] | < 4.00 | 4.29 | 4.15 | < 4.00 |  |  |  |  |  |  | 
16 | C[C@]12CC[C@@H]3c4ccc(O)cc4CC[C@H]3[C@@H]1CC[C@H]2O [compound 19, α-Estradiol] | 4.06 | 4.39 | 4.30 |  |  |  |  |  |  |  | < 4.00
17 | C[C@H](CCC(=O)NCCS(=O)(=O)O)[C@H]1CC[C@H]2[C@@H]3[C@@H](O)C[C@@H]4C[C@H](O)CC[C@]4(C)[C@H]3CC[C@]12C [compound 7, Tauroursodeoxycholic acid] | < 4.00 | 4.08 | 4.37 | < 4.00 |  |  |  |  |  |  | 
18 | C[C@H](CCC(=O)O)[C@H]1CC[C@H]2[C@@H]3C(=O)C[C@@H]4CC(=O)CC[C@]4(C)[C@H]3CC(=O)[C@]12C [compound 10, Dehydrocholic acid] | < 4.00 | 4.24 | 4.27 | < 4.00 |  |  |  |  |  |  | 
19 | C[C@H](CCC(=O)O)[C@H]1CC[C@H]2[C@@H]3CC[C@@H]4C[C@H](O)CC[C@]4(C)[C@H]3C[C@H](O)[C@]12C [compound 4, Deoxycholic acid] | < 4.00 | 4.29 | 4.26 | < 4.00 |  |  |  |  |  |  | 
20 | C[C@]12CC[C@@H](O)C[C@@H]1CC[C@@H]1[C@@H]2CC[C@]2(C)C(=O)CC[C@@H]12 [compound 14, Androsterone] |  |  |  |  | < 4.00 | < 4.00 | < 4.00 | < 4.00 |  |  | 
21 | CC(=O)[C@H]1CC[C@H]2[C@@H]3CCC4=CC(=O)CC[C@]4(C)[C@H]3[C@H](O)C[C@]12C [compound 18, 11α-Hydroxyprogesterone] | < 4.00 |  |  | < 4.00 |  |  |  |  | < 4.00 | < 4.00 | 
22 | C[C@H](CCC(=O)O)[C@H]1CC[C@H]2[C@@H]3[C@@H](O)C[C@@H]4C[C@H](O)CC[C@]4(C)[C@H]3CC[C@]12C [compound 5, Ursodeoxycholic acid] | 4.02 | 4.15 | 4.14 |  |  |  |  |  |  |  | < 4.00

From article PMC7011995, “Steroids interfere with human carbonic anhydrase activity by using alternative binding mechanisms” (Journal of Enzyme Inhibition and Medicinal Chemistry, 2018)
